Results taken from publication PMC7582822, “Constituents of Coreopsis lanceolata Flower and Their Dipeptidyl Peptidase IV Inhibitory Effects” (Molecules, 2020).
pIC50: −log10 of the molar value. Where two headings read alike, the source gives them in different places.

Biological target: T1, human recombinant DPP-IV enzyme (Homo sapiens, UniProt P27487)
T1 construct: purchased Cayman Chemical
Assay: DPP-IV inhibitor screening assay (Cayman kit, fluorogenic H-Gly-Pro-AMC substrate)
Assay type: biochemical
Details: for DPP-IV inhibitory effect (in words): isolates tested up to 100 μM
Protocol: Briefly, a DDP assay buffer consisting of 20 mM Tris-HCL (pH 8.0), […] and 1 mM EDTA was used for the assay solution. Each of the compounds were initially dissolved in DMSO at a concentration of 1 mM. Subsequently, the final concentration of compounds was diluted to 0.1, 1, 10, 25, 50 and 100 μM, respectively. The human recombinant DPP-IV enzyme and the substrate 5 mM H-Gly-Pro conjugated to aminomethylcoumarin (AMC) were put in the same buffer. Diluted assay buffer (30 μL) and diluted enzyme solution (10 μL) were added to a 96-well plate containing 10 μL of solvent (blank) or 10 μL of solvent-dissolved test compounds. The reaction by adding 50 μL of the diluted solution of the fluorogenic substrate was initiated and cleavage of the peptide bond by DPP released the free AMC group. The fluorescence was measured as an excitation wavelength of 350 nm and an emission wavelength of 450 nm using a plate reader (TECAN, Männedorf, Switzerland). The percentage inhibition was expressed as [(DPP-IV level of vehicle-treated control−DPP-IV level of test samples)/DPP-IV level of vehicle-treated control] × 100. Subsequently, the 50% inhibitory concentration (IC50) was determined using GraphPad Prism software (GaraphPad Software, La Jolla, CA, USA) via a dose–response analysis.

[1] = in vitro, compounds at 0.1-100 μM, values in text, read-out: IC50, inhibition of DPP-IV activity

T1 sequence (P27487 whole entry): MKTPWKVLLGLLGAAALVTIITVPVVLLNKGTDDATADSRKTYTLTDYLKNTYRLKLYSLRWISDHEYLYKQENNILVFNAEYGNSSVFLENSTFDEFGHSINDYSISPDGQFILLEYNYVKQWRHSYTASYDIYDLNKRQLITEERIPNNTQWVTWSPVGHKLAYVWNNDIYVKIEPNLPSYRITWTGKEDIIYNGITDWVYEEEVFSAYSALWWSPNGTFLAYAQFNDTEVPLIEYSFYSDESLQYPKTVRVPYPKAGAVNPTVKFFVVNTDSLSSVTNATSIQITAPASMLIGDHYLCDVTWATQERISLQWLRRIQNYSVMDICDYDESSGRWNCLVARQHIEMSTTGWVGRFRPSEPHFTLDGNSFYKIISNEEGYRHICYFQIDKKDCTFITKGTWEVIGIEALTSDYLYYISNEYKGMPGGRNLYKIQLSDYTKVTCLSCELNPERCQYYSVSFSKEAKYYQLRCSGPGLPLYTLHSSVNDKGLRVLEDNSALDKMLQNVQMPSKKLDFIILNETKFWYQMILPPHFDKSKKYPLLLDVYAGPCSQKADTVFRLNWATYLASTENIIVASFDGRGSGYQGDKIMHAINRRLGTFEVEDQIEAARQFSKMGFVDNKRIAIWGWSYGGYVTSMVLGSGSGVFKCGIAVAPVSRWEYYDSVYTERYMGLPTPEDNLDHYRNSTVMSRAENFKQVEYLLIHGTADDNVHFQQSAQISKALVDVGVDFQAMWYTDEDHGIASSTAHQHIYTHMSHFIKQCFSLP

DPP-IV inhibitory effect (in words) | pIC50 (dose-response curves, mean ± SD of three independent experiments, read-out: IC50, effect on DPP-IV activity (Figure 3)) | pIC50 [1] | Compound
 | 5.02 | 5.02 | COc1c(O)ccc(C(=O)/C=C/c2ccc(O)c(O)c2)c1O [Compound 2, lanceoletin]
 |  | 4.84 | COc1ccc(C=CC(=O)c2ccc(OC3OC(CO)C(O)C(O)C3O)c(OC)c2O)cc1O (stereo not shown) [Compound 3, 3,2′-dihydroxy-4-3′-dimethoxychalcone-4′-glucoside]
 |  | 4.67 | COc1ccc(/C=C/C(=O)c2ccc(O)c(OC)c2O)cc1O [Compound 4]
moderate |  | 4.88 | COc1c(O)ccc2c1O/C(=C\c1ccc(O)c(O)c1)C2=O [Compound 6, leptosidin]
moderate |  | 4.19 | COc1c(O)ccc2c1O[C@@H](c1ccc(O)c(O)c1)CC2=O [Compound 7, (2R)-8-methoxybutin]
did not show their activities |  |  | O=c1cc(-c2ccc(O)c(O)c2)oc2cc(O)cc(O)c12 [Compound 8, luteolin]
did not show their activities |  |  | O=c1c(O)c(-c2ccc(O)c(O)c2)oc2cc(O)cc(O)c12 [Compound 9, quercetin]
did not show their activities |  |  | C/C=C/C#CC#CCCCO[C@@H]1O[C@H](CO)[C@@H](O)[C@H](O)[C@H]1O [Compound 10, bidenoside C]
did not show their activities |  |  | C=C[C@H](O)[C@H](/C=C/C#CC#CC#CC)O[C@@H]1O[C@H](CO)[C@@H](O)[C@H](O)[C@H]1O [Compound 11, (3S,4S)-5E-trideca-1,5-dien-7,9,11-triyne-3,4-diol-4-O-β-glucopyranoside]

Compound | DPP-IV inhibitory effect (in words) | pIC50 (dose-response curves, mean ± SD of three independent experiments, read-out: IC50, effect on DPP-IV activity (Figure 3)) | pIC50 [1]
CC#CC#CC#C/C=C/[C@@H](CCCCO)O[C@@H]1O[C@H](CO)[C@@H](O)[C@H](O)[C@H]1O [Compound 1, (5R)-6E-tetradecene-8,10,12-triyne-1-ol-5-O-β-glucoside] | did not show their activities |  | 
